Experimental data as given in patent US3965109A, “Certain aryl amino pyridines” (priority 1971, dated 1976).

Tests used:
[1] = test system: Puccinia recondita (wheat); assay: Fungicidal test against foliar disease A (foliage spray plus soil drench); assay type: in vivo; conditions: 10 days; for Amount of disease grading, disease A (Table 4): 100 ppm spray and drench
[2] = test system: Phytophthora infestans (tomato); assay type: in vivo; conditions: 50 ppm spray + 200 ppm soil drench; 3 days
[3] = test system: Plasmopara viticola (vine); assay: Fungicidal test against foliar disease C (foliage spray plus soil drench); assay type: in vivo; conditions: 10 days
Uncinula necator (vine) = assay: Fungicidal test against foliar disease D (foliage spray plus soil drench); assay type: in vivo; conditions: 10 days
[4] = test system: Piricularia oryzae (rice); assay type: in vivo; conditions: 7 days
[5] = test system: Tetranychus telarius (red spider mites, adults); assay: Pest toxicity test; assay type: in vivo; conditions: 0.1% by weight; French bean; 3 days
[6] = test system: Tetranychus telarius (red spider mites, eggs); assay: Pest toxicity test; assay type: in vivo; conditions: 0.1% by weight; French bean; 3 days
Aphis fabae = assay: Pest toxicity test; assay type: in vivo; conditions: 0.1% by weight; broad bean; 2 days
Megoura viceae = assay: Pest toxicity test; assay type: in vivo; conditions: 0.1% by weight; broad bean; 2 days
[7] = test system: Aedes aegypti (mosquito larvae); assay: Pest toxicity test; assay type: in vivo; conditions: for Mortality grading (kill): 0.01% by weight, water, 1 day
[8] = test system: Aedes aegypti (mosquito adults); assay: Pest toxicity test; assay type: in vivo; conditions: 0.01% by weight; plywood; 1 day
[9] = test system: Musca domestica (houseflies); assay: Pest toxicity test, contact test; assay type: in vivo; conditions: 0.1% by weight; milk/sugar; 2 days; flies sprayed directly
[10] = test system: Pieris brassicae (cabbage white caterpillars); assay: Pest toxicity test; assay type: in vivo; conditions: 0.1% by weight, 2 days
[11] = test system: Plutella maculipennis (diamond back moth larvae); assay: Pest toxicity test; assay type: in vivo; conditions: in vivo
[12] = test system: Phaedon cochleariae (mustard beetles); assay: Pest toxicity test; assay type: in vivo; conditions: in vivo
[13] = test system: Agriolimax reticulatus (slugs); assay: Molluscicidal activity test; assay type: in vivo, Agriolimax reticulatus (Mull); conditions: pellet with 4% by weight; 6 days; 10°C
Experimental: A weighed sample of the compound under test was dissolved in 0.5 c.c. of an ethanol and acetone mixture 50:50 v/v). The solution was diluted with 0.5 cc water and poured onto a calf feeding pellet in a glass Petri dish. The pellet was then air dried for 24 hours. The weight of compound used was chosen so that the dried pellet contained 4% by weight of the active ingredient. Two replicates each consisting of a plastic Petri dish containing a pellet, 2 slugs, and a moistened filter paper to maintain a high relative humidity were used in each test. The dishes were left in a cold room (10°C.) After 6 days the kill was assessed.
The slugs used were Agriolimax reticulatus (Mull), and they had been starved for 24 hours before the commencement of the tests.

Lettuce = assay: Herbicidal test, pre- and post-emergence; assay type: in vivo; conditions: 10 kg/ha; scale 0 to 3 (complete kill)
Tomato = assay: Herbicidal test, pre- and post-emergence; assay type: in vivo; conditions: 10 kg/ha; scale 0 to 3 (complete kill)
Wheat = assay: Herbicidal test, pre- and post-emergence; assay type: in vivo; conditions: 10 kg/ha; scale 0 to 3 (complete kill)
Maize = assay: Herbicidal test, pre- and post-emergence; assay type: in vivo; conditions: 10 kg/ha; scale 0 to 3 (complete kill)
Sugar beet = assay: Further herbicidal test, various rates; assay type: in vivo; conditions: 5 kg/hectare; scale 0 to 5 (complete kill)
Kale = assay: Further herbicidal test, various rates; assay type: in vivo; conditions: 5 kg/hectare; scale 0 to 5 (complete kill)
Carrot = assay: Further herbicidal test, various rates; assay type: in vivo; conditions: 5 kg/hectare; scale 0 to 5 (complete kill)
Pea = assay: Further herbicidal test, various rates; assay type: in vivo; conditions: 5 kg/hectare; scale 0 to 5 (complete kill)
Onion = assay: Further herbicidal test, various rates; assay type: in vivo; conditions: 5 kg/hectare; scale 0 to 5 (complete kill)
Barley = assay: Further herbicidal test, various rates; assay type: in vivo; conditions: 5 kg/hectare; scale 0 to 5 (complete kill)
Rice = assay: Further herbicidal test, various rates; assay type: in vivo; conditions: 5 kg/hectare; scale 0 to 5 (complete kill)
Oat = assay: Further herbicidal test, various rates; assay type: in vivo; conditions: 5 kg/hectare; scale 0 to 5 (complete kill)
[14] = 50 ppm spray + 200 ppm soil drench

**Q.** `O=[N+]([O-])c1ccc(Nc2c(Cl)c(Cl)nc(Cl)c2Cl)c([N+](=O)[O-])c1` [Compound 8, Tetrachloro-4(2,4-dinitroanilino)pyridine] was tested. Which “Amount of disease grading, disease A” value [1, 14] did it give?
**A.** 0 (61 to 100)

**Q.** What about the “Amount of disease grading, disease B” value [2] of the same molecule?
**A.** 3 (0 to 5)

**Q.** And the “Amount of disease grading, disease C” value [3, 14]?
**A.** 3 (0 to 5)

**Q.** And the “Amount of disease grading, disease D” value (Uncinula necator (vine); [14])?
**A.** 0 (61 to 100)

**Q.** What about the “Amount of disease grading, disease E” value [4, 14] of the same molecule?
**A.** 0 (61 to 100)

**Q.** And the “Mortality grading (kill)” value [5]?
**A.** 3 (3 represents over 90% kill)

**Q.** What about the “Mortality grading (kill)” value [6] of the same molecule?
**A.** 3 (3 represents over 90% kill)

**Q.** And the “Mortality grading (kill)” value (Aphis fabae)?
**A.** 0 (O represents less than 30% kill)

**Q.** And the “Mortality grading (kill)” value (Megoura viceae)?
**A.** 0 (O represents less than 30% kill)

**Q.** And the “Mortality grading (kill)” value [7]?
**A.** 0 (O represents less than 30% kill)

**Q.** What about the “abnormal growth effects in larva of mosquitos” value ([7]; in vivo) of the same molecule?
**A.** abnormal growth effects

**Q.** And the “Mortality grading (kill)” value [8]?
**A.** 0 (O represents less than 30% kill)

**Q.** What about the “Mortality grading (kill), contact test” value [9] of the same molecule?
**A.** 0 (O represents less than 30% kill)

**Q.** And the “Mortality grading (kill)” value [10]?
**A.** 0 (O represents less than 30% kill)

**Q.** And the “Mortality grading (kill)” value [11]?
**A.** 0 (key: O represents less than 30% kill; 1 represents 30 - 49% kill; 2 represents 60 - 90% kill; 3 represents over 90% kill; C indicates a chemosterilant effect.; A indicates an antifeeding effect.)

**Q.** What about the “Mortality grading (kill)” value [12] of the same molecule?
**A.** 0 (key: O represents less than 30% kill; 1 represents 30 - 49% kill; 2 represents 60 - 90% kill; 3 represents over 90% kill; C indicates a chemosterilant effect.; A indicates an antifeeding effect.)

**Q.** What about the “% Kill of slugs” value [13] of the same molecule?
**A.** 100%

**Q.** How did the “Amount of disease grading, disease A (Table 4)” value [1] turn out when `O=[N+]([O-])c1cc(Cl)c(Nc2c(Cl)c(F)nc(F)c2Cl)c(Cl)c1` [Compound 27, 3,5-Dichloro-2,6-difluoro-4(2,6-dichloro-4-nitroanilino)pyridine] was run?
**A.** 0 (61 to 100)

**Q.** And the “Amount of disease grading, disease C (Table 4)” value ([3]; 100 ppm spray and drench)?
**A.** 3 (0 to 5)

**Q.** What about the “Amount of disease grading, disease D (Table 4)” value (Uncinula necator (vine); 100 ppm spray and drench) of the same molecule?
**A.** 3 (0 to 5)

**Q.** What about the “Mortality grading (kill)” value [5] of the same molecule?
**A.** 3 (3 represents over 90% kill)

**Q.** What about the “Mortality grading (kill)” value [6] of the same molecule?
**A.** 3 (3 represents over 90% kill)

**Q.** And the “Mortality grading (kill)” value (Aphis fabae)?
**A.** 3 (3 represents over 90% kill)

**Q.** And the “Mortality grading (kill)” value (Megoura viceae)?
**A.** 3 (3 represents over 90% kill)

**Q.** And the “Mortality grading (kill)” value [7]?
**A.** 3 (3 represents over 90% kill)

**Q.** And the “Mortality grading (kill)” value [8]?
**A.** 2 (2 represents 60 - 90% kill)

**Q.** What about the “Mortality grading (kill), contact test” value [9] of the same molecule?
**A.** 3 (3 represents over 90% kill)

**Q.** And the “Mortality grading (kill)” value [10]?
**A.** 0 (O represents less than 30% kill)

**Q.** And the “Mortality grading (kill)” value [11]?
**A.** 0 (key: O represents less than 30% kill; 1 represents 30 - 49% kill; 2 represents 60 - 90% kill; 3 represents over 90% kill; C indicates a chemosterilant effect.; A indicates an antifeeding effect.)

**Q.** And the “Mortality grading (kill)” value [12]?
**A.** 0 (key: O represents less than 30% kill; 1 represents 30 - 49% kill; 2 represents 60 - 90% kill; 3 represents over 90% kill; C indicates a chemosterilant effect.; A indicates an antifeeding effect.)

**Q.** And the “% Kill of slugs” value [13]?
**A.** 100%

**Q.** And the “Damage to plants, post-emergence” value (Lettuce)?
**A.** 3

**Q.** What about the “Damage to plants, pre-emergence” value (Lettuce) of the same molecule?
**A.** 3

**Q.** And the “Damage to plants, post-emergence” value (Tomato)?
**A.** 1

**Q.** What about the “Damage to plants, pre-emergence” value (Tomato) of the same molecule?
**A.** 3

**Q.** And the “Damage to plants, post-emergence” value (Wheat)?
**A.** 0

**Q.** And the “Damage to plants, pre-emergence” value (Wheat)?
**A.** 0

**Q.** And the “Damage to plants, post-emergence” value (Maize)?
**A.** 0

**Q.** What about the “Damage to plants, pre-emergence” value (Maize) of the same molecule?
**A.** 0

**Q.** And the “Damage to plants, pre-emergence” value (Sugar beet)?
**A.** 4

**Q.** And the “Damage to plants, pre-emergence” value (Kale)?
**A.** 4

**Q.** What about the “Damage to plants, pre-emergence” value (Carrot) of the same molecule?
**A.** 4

**Q.** And the “Damage to plants, pre-emergence” value (Pea)?
**A.** 3

**Q.** And the “Damage to plants, pre-emergence” value (Onion)?
**A.** 0

**Q.** And the “Damage to plants, pre-emergence” value (Barley)?
**A.** 0

**Q.** What about the “Damage to plants, pre-emergence” value (Rice) of the same molecule?
**A.** 0

**Q.** What about the “Damage to plants, pre-emergence” value (Oat) of the same molecule?
**A.** 0

**Q.** With `N#Cc1c(F)c(F)c(Nc2c(Cl)c(Cl)nc(Cl)c2Cl)c(F)c1F` [Compound 42, 4(4-Cyano-2,3,5,6-tetrafluoroanilino)tetrachloropyridine] as the molecule, how does the “Amount of disease grading, disease A (Table 4)” value [1] read?
**A.** 3 (0 to 5)

**Q.** What about the “Amount of disease grading, disease E (Table 4)” value ([4]; 100 ppm spray and drench) of the same molecule?
**A.** 0 (61 to 100)

**Q.** What about the “Mortality grading (kill)” value [5] of the same molecule?
**A.** 3 (3 represents over 90% kill)

**Q.** And the “Mortality grading (kill)” value [6]?
**A.** 3 (3 represents over 90% kill)

**Q.** And the “Mortality grading (kill)” value (Aphis fabae)?
**A.** 3 (3 represents over 90% kill)

**Q.** And the “Mortality grading (kill)” value (Megoura viceae)?
**A.** 3 (3 represents over 90% kill)

**Q.** What about the “Mortality grading (kill)” value [7] of the same molecule?
**A.** 3 (3 represents over 90% kill)

**Q.** What about the “Mortality grading (kill)” value [8] of the same molecule?
**A.** 0 (O represents less than 30% kill)

**Q.** What about the “Mortality grading (kill), contact test” value [9] of the same molecule?
**A.** 3 (3 represents over 90% kill)

**Q.** What about the “Mortality grading (kill)” value [10] of the same molecule?
**A.** 3 (3 represents over 90% kill)

**Q.** And the “Mortality grading (kill)” value [11]?
**A.** 0 (key: O represents less than 30% kill; 1 represents 30 - 49% kill; 2 represents 60 - 90% kill; 3 represents over 90% kill; C indicates a chemosterilant effect.; A indicates an antifeeding effect.)

**Q.** And the “Mortality grading (kill)” value [12]?
**A.** 0 (key: O represents less than 30% kill; 1 represents 30 - 49% kill; 2 represents 60 - 90% kill; 3 represents over 90% kill; C indicates a chemosterilant effect.; A indicates an antifeeding effect.)

**Q.** What about the “% Kill of slugs” value [13] of the same molecule?
**A.** 50%

**Q.** What about the “Damage to plants, post-emergence” value (Lettuce) of the same molecule?
**A.** 2

**Q.** What about the “Damage to plants, pre-emergence” value (Lettuce) of the same molecule?
**A.** 3

**Q.** And the “Damage to plants, post-emergence” value (Tomato)?
**A.** 3

**Q.** And the “Damage to plants, pre-emergence” value (Tomato)?
**A.** 3

**Q.** What about the “Damage to plants, post-emergence” value (Wheat) of the same molecule?
**A.** 0

**Q.** What about the “Damage to plants, pre-emergence” value (Wheat) of the same molecule?
**A.** 3

**Q.** And the “Damage to plants, post-emergence” value (Maize)?
**A.** 0

**Q.** What about the “Damage to plants, pre-emergence” value (Maize) of the same molecule?
**A.** 3

**Q.** And the “Damage to plants, post-emergence” value (Sugar beet)?
**A.** 5

**Q.** And the “Damage to plants, pre-emergence” value (Sugar beet)?
**A.** 5

**Q.** And the “Damage to plants, post-emergence” value (Kale)?
**A.** 5

**Q.** And the “Damage to plants, pre-emergence” value (Kale)?
**A.** 4

**Q.** What about the “Damage to plants, post-emergence” value (Carrot) of the same molecule?
**A.** 5

**Q.** What about the “Damage to plants, pre-emergence” value (Carrot) of the same molecule?
**A.** 5

**Q.** What about the “Damage to plants, post-emergence” value (Pea) of the same molecule?
**A.** 1

**Q.** What about the “Damage to plants, pre-emergence” value (Pea) of the same molecule?
**A.** 2

**Q.** What about the “Damage to plants, pre-emergence” value (Onion) of the same molecule?
**A.** 5

**Q.** And the “Damage to plants, post-emergence” value (Barley)?
**A.** 1

**Q.** And the “Damage to plants, pre-emergence” value (Barley)?
**A.** 3

**Q.** What about the “Damage to plants, post-emergence” value (Rice) of the same molecule?
**A.** 0

**Q.** What about the “Damage to plants, pre-emergence” value (Rice) of the same molecule?
**A.** 3

**Q.** What about the “Damage to plants, post-emergence” value (Oat) of the same molecule?
**A.** 4

**Q.** What about the “Damage to plants, pre-emergence” value (Oat) of the same molecule?
**A.** 4
